Where two headings read alike, the source gives them in different places.
Target: human PDHK2 (hPDHK2) (Homo sapiens (Human), UniProt Q15119)
Assay: Inhibitory action of PDHK activity in vitro (kinase reaction, residual PDH activity measured)
Type: biochemical
[1] = PDHK inhibitory activity, class symbol of IC50
[2] = read-out: PDHK inhibitory activity IC50

Structure (SMILES)	IC50 [1]	IC50 [2]	IC50 (class symbol of IC50, read-out: PDHK inhibitory activity)
Cn1cc(-c2cc(C(=O)N3CCC[C@H]3CO)cc3c2-c2ccccc2C3(O)C(F)(F)F)cn1 (some centres unmarked) [compound 393]	100 to 1000 nM	176 nM	–
Cn1cc(-c2cc(C(=O)N3CCC(CO)C3)cc3c2-c2ccccc2C3(O)C(F)(F)F)cn1 (centres unmarked) [compound 394]	< 100 nM	58 nM	–
O=C1CCCN1CCCOc1ccc2c(c1)C(O)(C(F)(F)F)c1ccccc1-2 (centres unmarked) [compound 395]	100 to 1000 nM	699 nM	–
O=C(COc1ccc2c(c1)C(O)(C(F)(F)F)c1ccccc1-2)N1CCC(O)CC1 (centres unmarked) [compound 396]	100 to 1000 nM	627 nM	–
O=C(COc1ccc2c(c1)C(O)(C(F)(F)F)c1ccccc1-2)N1CCC(CO)CC1 (centres unmarked) [compound 397]	100 to 1000 nM	424 nM	–
CC(=O)N(C)CCOc1cnc2c(c1)C(O)(C(F)(F)F)c1ccccc1-2 (centres unmarked) [compound 398]	100 to 1000 nM	119 nM	–
CN(CCOc1cnc2c(c1)C(O)(C(F)(F)F)c1ccccc1-2)C(=O)CO (centres unmarked) [compound 399]	100 to 1000 nM	149 nM	–
O=C(COc1ccc2c(c1)C(O)(C(F)(F)F)c1ccccc1-2)N(CCO)CCO (centres unmarked) [compound 400]	> 1000 nM	7080 nM	–
O=C1CCCCN1CCCOc1ccc2c(c1)C(O)(C(F)(F)F)c1ccccc1-2 (centres unmarked) [compound 401]	100 to 1000 nM	554 nM	–
O=C(O)Cc1ccc2c(c1)C(O)(C(F)(F)F)c1ccccc1-2 (centres unmarked) [compound 402]	> 1000 nM	> 10000 nM	–
NC(=O)Cc1ccc2c(c1)C(O)(C(F)(F)F)c1ccccc1-2 (centres unmarked) [compound 403]	> 1000 nM	> 10000 nM	–
O=C(O)CCCOc1cc(Br)c2c(c1)C(O)(C(F)(F)F)c1ccccc1-2 (centres unmarked) [compound 404]	100 to 1000 nM	195 nM	–
OCCc1ccc2c(c1)C(O)(C(F)(F)F)c1ccccc1-2 (centres unmarked) [compound 405]	> 1000 nM	6380 nM	–
OCCCCCOc1cc(-c2cncnc2)c2c(c1)C(O)(C(F)(F)F)c1ccccc1-2 (centres unmarked) [compound 406]	< 100 nM	25 nM	–
Cn1cc(-c2cc(OCCCCCO)cc3c2-c2ccccc2C3(O)C(F)(F)F)cn1 (centres unmarked) [compound 407]	< 100 nM	31 nM	–
CN(CCOc1cc(Cl)c2c(c1)C(O)(C(F)(F)F)c1ccccc1-2)S(C)(=O)=O (centres unmarked) [compound 408]	< 100 nM	65 nM	–
CN(CCOc1cc(Cl)c2c(c1)C(O)(C(F)(F)F)c1ccccc1-2)C(=O)CO (centres unmarked) [compound 409]	< 100 nM	67 nM	–
NC(=O)CCCOc1cc(Cl)c2c(c1)C(O)(C(F)(F)F)c1ccccc1-2 (centres unmarked) [compound 410]	100 to 1000 nM	154 nM	–
OCCn1cc(-c2cccc3c2-c2ccccc2C3(O)C(F)(F)F)cn1 (centres unmarked) [compound 411]	< 100 nM	66 nM	–
Cn1cc(-c2cc(OCCN3CCCC3=O)cc3c2-c2ccccc2C3(O)C(F)(F)F)cn1 (centres unmarked) [compound 412]	< 100 nM	22 nM	–
CC(Oc1ccc2c(c1)C(O)(C(F)(F)F)c1ccccc1-2)C(=O)O (centres unmarked) [compound 413]	> 1000 nM	1230 nM	–
Cn1cc(-c2cc(C(=O)N3CC3)cc3c2-c2ccccc2C3(O)C(F)(F)F)cn1 (centres unmarked) [compound 414]	< 100 nM	32 nM	–
CC(=O)NCc1ccc2c(c1)C(O)(C(F)(F)F)c1ccccc1-2 (centres unmarked) [compound 415]	> 1000 nM	9190 nM	–
O=C1CCCCN1CCOc1ccc2c(c1)C(O)(C(F)(F)F)c1ccccc1-2 (centres unmarked) [compound 416]	100 to 1000 nM	104 nM	–
CNCc1ccc2c(c1)C(O)(C(F)(F)F)c1ccccc1-2 (centres unmarked) [compound 417]	–	> 1000 nM	> 1000 nM
CC(=O)N(C)Cc1ccc2c(c1)C(O)(C(F)(F)F)c1ccccc1-2 (centres unmarked) [compound 418]	> 1000 nM	6060 nM	–
O=C1CCC(COc2ccc3c(c2)C(O)(C(F)(F)F)c2ccccc2-3)N1 (centres unmarked) [compound 419]	100 to 1000 nM	504 nM	–
CN1C(=O)CCC1COc1ccc2c(c1)C(O)(C(F)(F)F)c1ccccc1-2 (centres unmarked) [compound 420]	100 to 1000 nM	225 nM	–
